In one series the test system is acne patients. The series can be described thus: Pilot clinical study: safety evaluation. The format is in vivo, human. The conditions noted are these: BPO once a day, Day 1-Day 7, 14 subjects. As to the method:
(§1) The pilot study was performed for 6 weeks with 14 subjects between 18-23 years. The primary endpoints were safety and efficacy trends. Two different bacterial formulations: A2 (a 2-strain mixture comprising strains C3 and K8 of P. acnes) and B4 (a 4-strain mixture comprising strains C3, K8, A5, and F4 of P. acnes) were tested.
(§2) Subjects were randomly distributed into two arms with different bacterial formulations administered to the subjects in each arm. Bacterial formulations were double-blinded: Arm 1: n=8 subjects received formulation A2. Arm 2: n=6 subjects received formulation B4. Subjects were evaluated on Day 1, Day 7, Day 21, and Day 42. In the first week, between Day 1 and Day 7, all subjects received Benzoyl peroxide (BPO) treatment (applied once a day). In the following 5 weeks, between Day 7 and Day 42, all subjects received bacterial formulation (gel applied 2× per day). FIG. 8A depicts the design of the pilot study.
The safety of the administered formulations was evaluated, for example, by visual evaluation of the redness, irritation or any other skin problems during each visit. No safety issues were observed during the study. Seven subjects reported dry or red skin during the use of BPO (Day 1-Day 7). […] No adverse effects were observed associated with the administration of live bacteria.

Another series has as its system skin microbiome. The series can be described thus: Pilot clinical study: bacterial species composition of skin microbiome (16S). The format is in vivo, human. The conditions noted are these: after BPO application (Day 7). As to the method:
as §1, §2
The composition of bacterial species (16S) in the microbiome samples were analyzed on each visit. […]
When relating the bacterial species (16S) data with the strain level data (SLST) of P. acnes, it was observed that on Day 1 (ground state) the relative abundance of P. acnes was lower in acceptors (34%) compared to non-acceptors (41%). […] Relative abundances were determined using classical 16S amplicon sequencing. […]

Series [1] in a line: MBC test, 24 h exposure to benzoic acid, then 4 days on RCM agar. The conditions noted are these: all P. acnes strains tested.
Another series deals with P. acnes strains. Kind of series: Inhibition of P. acnes strains by salicylic acid. In kind it is cell-based.
The next series has as its system P. acnes. The conditions noted are these: Allgaier et al., 1985; cited from earlier work.

Regarding `O=C(OOC(=O)c1ccccc1)c1ccccc1` [BPO, Benzoyl peroxide], the “subjects reporting dry or red skin” value in the series with acne patients is recorded as “Seven”. Further, the “change of total P. acnes population” value with skin microbiome is recorded as “decrease”.

Consider `O=C(O)c1ccccc1` [Benzoic acid], for which, in series [1], the “concentration of benzoic acid affecting the growth of all strains (MBC test)” value was “greater than 0.31 % vol/vol”.

Take `O=C(O)c1ccccc1O` [salicylic acid]: in the series with P. acnes strains, the “inhibition of P. acnes strains” value is “not inhibited”.

Epidermin: the “activity against P. acnes” value in the series on P. acnes is given as “highly active”.
